Reference: US10004732B2 (Novartis AG, priority 2014, dated 2018)
Counter-ions that a name gives are not always drawn.

Experiments:
PI 3-kinase gamma [1] = target: T1, PI 3-kinase gamma (Homo sapiens, UniProt P48736); experiment: Cellular U937 AKT assay K2 (HTRF); assay type: cell-based; settings: U937 cells, K2 format; read-out: Assay K2 PI3Kγ IC50
Procedure: In assays K1 and K2, the compounds were tested for their ability to inhibit the production of phosphorylated AKT (Protein Kinase B) generated in a PI 3-kinase gamma isoform-dependent process in a U937 human cell line.
Cellular U937 AKT Assay for PI 3-Kinase Gamma (K2)
U937 cells are split every 3-4 days: 5×10^6 cells/flask (175 cm^2) in 40 ml.
Semi-automated preparation of cell lysates: Cells were resuspended in HBSS, seeded (200′000 cells/well/60 μl) into a 384-well plate and incubated in a humidified 37° C., 5% CO2 incubator for 1.5 hours. The compounds were diluted with HBSS and 40 μl were added to the starved cells (except for wells 24 I-P). […] The cells were then incubated for 30 minutes at 37° C. and 5% CO2. Stimulation occurred during 3 minutes by addition of 20 μl MIP1α (final 10 ng/ml, diluted in HBSS) in the incubator. Wells 24 A-H were only stimulated with HBSS.
The stimulation was then stopped by putting the cell plates on ice (filled with cold water). The cells were then centrifuged at 1200 rpm and 4° C. for 3 minutes.
80 μl of supernatant was removed. The cells were again centrifuged at 1200 rpm and 4° C. for 3 minutes. The supernatant was then removed by turning plates upside down and 30 μl of lysis buffer were added. The plate was incubated at room temperature for 30 minutes under shaking. 16 μl were then transferred to a ProxiPlate Plus 384-well. 4 μl of the master mix (each conjugate diluted 1:20 with detection reagent) were added to each well and the plate was kept in the dark at room temperature for 4 hours.

[2] = tested on: IL-8-induced neutrophil shape change in human whole blood; experiment: Whole blood neutrophil shape change assay (L); assay type: cell-based; settings: Homo sapiens, Neutrophil, IL-8, human whole blood, read-out: Assay L WBSC IC50
PI 3-kinase delta [3] = target: T2, PI 3-kinase delta (Homo sapiens, UniProt O00329); experiment: Cellular assay J1, p-Akt (S473) in Rat-1 cells, Surefire format; assay type: cell-based; settings: non-asterisked data: version J1 (Surefire format), Rat-1 cells; read-out: Assay J PI3Kδ IC50
PI 3-kinase beta [4] = target: T3, PI 3-kinase beta (Homo sapiens, UniProt P42338); experiment: Cellular assay I1, p-Akt (S473) in Rat-1 cells, Surefire format; assay type: cell-based; settings: non-asterisked data: version I1 (Surefire format), Rat-1 cells; read-out: Assay I PI3Kβ IC50
Target sequence in this assay (P42338 whole entry): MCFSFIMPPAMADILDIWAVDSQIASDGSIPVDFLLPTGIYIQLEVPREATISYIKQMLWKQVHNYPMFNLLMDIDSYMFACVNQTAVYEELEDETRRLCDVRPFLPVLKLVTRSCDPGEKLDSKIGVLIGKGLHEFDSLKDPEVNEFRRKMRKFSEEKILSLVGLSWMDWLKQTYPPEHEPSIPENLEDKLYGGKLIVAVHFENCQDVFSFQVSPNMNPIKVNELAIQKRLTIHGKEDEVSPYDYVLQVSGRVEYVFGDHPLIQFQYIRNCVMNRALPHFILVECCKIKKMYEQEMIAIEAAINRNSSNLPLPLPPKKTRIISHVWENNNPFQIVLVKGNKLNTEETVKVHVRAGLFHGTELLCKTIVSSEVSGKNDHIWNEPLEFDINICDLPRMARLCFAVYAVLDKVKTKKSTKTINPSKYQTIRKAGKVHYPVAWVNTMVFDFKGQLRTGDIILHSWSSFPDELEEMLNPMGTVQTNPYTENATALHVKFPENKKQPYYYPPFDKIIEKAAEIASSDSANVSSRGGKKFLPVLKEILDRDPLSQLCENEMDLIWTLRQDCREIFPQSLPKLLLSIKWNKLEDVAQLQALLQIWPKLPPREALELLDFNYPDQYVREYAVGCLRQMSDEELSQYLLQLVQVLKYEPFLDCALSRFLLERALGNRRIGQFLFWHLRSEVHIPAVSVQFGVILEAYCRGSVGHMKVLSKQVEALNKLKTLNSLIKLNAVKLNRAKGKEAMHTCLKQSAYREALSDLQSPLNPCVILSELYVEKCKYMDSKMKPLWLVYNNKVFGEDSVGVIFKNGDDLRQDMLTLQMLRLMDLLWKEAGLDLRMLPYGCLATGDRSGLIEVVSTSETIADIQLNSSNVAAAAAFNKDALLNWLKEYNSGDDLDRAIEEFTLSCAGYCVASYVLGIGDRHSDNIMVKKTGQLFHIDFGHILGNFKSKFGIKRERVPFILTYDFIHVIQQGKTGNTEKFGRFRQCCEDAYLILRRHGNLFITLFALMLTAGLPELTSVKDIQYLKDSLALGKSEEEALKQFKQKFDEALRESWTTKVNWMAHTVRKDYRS
Target sequence in this assay (Q63787 whole entry partner): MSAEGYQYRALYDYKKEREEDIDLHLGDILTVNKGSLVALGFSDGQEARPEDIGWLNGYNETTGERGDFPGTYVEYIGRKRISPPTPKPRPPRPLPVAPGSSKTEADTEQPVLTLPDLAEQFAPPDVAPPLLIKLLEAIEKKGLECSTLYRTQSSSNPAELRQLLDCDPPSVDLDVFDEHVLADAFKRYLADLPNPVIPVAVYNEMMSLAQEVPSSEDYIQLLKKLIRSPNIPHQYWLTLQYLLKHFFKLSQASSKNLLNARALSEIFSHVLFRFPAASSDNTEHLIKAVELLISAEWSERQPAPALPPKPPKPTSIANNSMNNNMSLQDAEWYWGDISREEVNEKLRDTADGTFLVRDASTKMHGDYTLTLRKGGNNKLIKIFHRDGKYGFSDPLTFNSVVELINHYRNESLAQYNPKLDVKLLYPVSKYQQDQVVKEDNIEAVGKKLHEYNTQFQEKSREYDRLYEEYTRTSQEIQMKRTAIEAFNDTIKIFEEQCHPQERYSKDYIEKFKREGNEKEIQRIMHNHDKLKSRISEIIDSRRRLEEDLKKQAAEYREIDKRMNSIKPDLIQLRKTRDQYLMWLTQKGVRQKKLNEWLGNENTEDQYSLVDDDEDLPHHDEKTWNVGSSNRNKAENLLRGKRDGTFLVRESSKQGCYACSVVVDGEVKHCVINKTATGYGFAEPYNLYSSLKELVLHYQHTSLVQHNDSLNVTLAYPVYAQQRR

PI 3-kinase alpha [5] = target: T4, PI 3-kinase alpha (Homo sapiens, UniProt P42336); experiment: Cellular assay H1, p-Akt (S473) in Rat-1 cells, Surefire format; assay type: cell-based; settings: non-asterisked data: version H1 (Surefire format), Rat-1 cells; read-out: Assay H PI3Kα IC50
Target sequence in this assay (P42336 whole entry): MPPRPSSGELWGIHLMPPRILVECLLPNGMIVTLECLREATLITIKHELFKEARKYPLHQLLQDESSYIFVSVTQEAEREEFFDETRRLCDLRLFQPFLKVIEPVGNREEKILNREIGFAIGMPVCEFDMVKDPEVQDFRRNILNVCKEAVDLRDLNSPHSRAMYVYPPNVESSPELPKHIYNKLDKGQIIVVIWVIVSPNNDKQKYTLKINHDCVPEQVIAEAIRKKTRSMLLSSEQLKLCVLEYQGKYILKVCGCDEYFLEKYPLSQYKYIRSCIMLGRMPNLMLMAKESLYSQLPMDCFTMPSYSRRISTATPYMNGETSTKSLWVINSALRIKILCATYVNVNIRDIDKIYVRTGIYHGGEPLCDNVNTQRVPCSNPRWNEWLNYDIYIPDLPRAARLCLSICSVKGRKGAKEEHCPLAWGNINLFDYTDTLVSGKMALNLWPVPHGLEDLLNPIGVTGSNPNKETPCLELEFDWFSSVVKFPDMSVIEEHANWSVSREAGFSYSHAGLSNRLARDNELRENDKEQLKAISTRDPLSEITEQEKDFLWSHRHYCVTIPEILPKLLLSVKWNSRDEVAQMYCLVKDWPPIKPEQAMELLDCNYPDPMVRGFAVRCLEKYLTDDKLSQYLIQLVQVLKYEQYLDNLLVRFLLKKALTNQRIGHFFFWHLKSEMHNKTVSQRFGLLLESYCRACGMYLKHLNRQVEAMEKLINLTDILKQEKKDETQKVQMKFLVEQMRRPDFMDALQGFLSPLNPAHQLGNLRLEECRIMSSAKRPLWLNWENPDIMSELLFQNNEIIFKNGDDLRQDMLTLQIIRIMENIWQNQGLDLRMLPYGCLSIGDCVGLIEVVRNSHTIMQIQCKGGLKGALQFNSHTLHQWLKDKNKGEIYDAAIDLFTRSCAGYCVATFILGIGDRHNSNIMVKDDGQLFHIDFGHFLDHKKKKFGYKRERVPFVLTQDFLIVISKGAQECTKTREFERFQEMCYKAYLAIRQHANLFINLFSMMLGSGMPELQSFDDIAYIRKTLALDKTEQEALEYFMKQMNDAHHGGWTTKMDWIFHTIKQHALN
Target sequence in this assay (Q63787 whole entry partner): as the sequence (Q63787 whole entry partner) above

PI 3-kinase beta [6] = target: T3, PI 3-kinase beta; experiment: Kinase Glo Luminescent Kinase Assay (Kglo), assay B; assay type: biochemical; settings: read-out: Assay B PI3Kβ IC50
Target sequence in this assay (P42338 whole entry): as the sequence (P42338 whole entry) above
Target sequence in this assay (P27986 461-568 partner): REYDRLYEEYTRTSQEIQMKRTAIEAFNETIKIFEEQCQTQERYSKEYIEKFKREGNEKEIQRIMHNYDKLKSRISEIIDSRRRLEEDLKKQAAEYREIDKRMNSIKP

Vps34 = Vps34 (Homo sapiens, UniProt Q8NEB9); experiment: Kinase Glo Luminescent Kinase Assay (Kglo), assay C; assay type: biochemical; settings: read-out: Assay C VPS34 IC50
Procedure: Kinase Glo Luminescent Kinase Assay (Kglo) for Pb 3-Kinase Alpha (A), Pb 3-Kinase Beta (B), Vps34 (C), Pb 4-Kinase Beta (D)
The Kinase Glo Luminescent Kinase Assay (Promega, Madison/Wis., USA) is a homogeneous HTS method of measuring kinase activity by quantifying the amount of ATP remaining in solution following a kinase reaction.
L-α-phosphatidylinositol (PI), provided as 10 mg/ml solution in methanol, was transferred into a glass tube and dried under a nitrogen beam. It was then resuspended in 3% OctylGlucoside (1-0-n-octyl-beta-D-glucopyranoside) by vortexing and stored at 4° C. 5 μL of a mix of PI/OctylGlucoside with the PI 3-kinase alpha and PI 3-kinase beta subtypes, or Vps34 or PI 4-kinase beta were added. Kinase reactions were started by the addition of 5 μl of an ATP-mix containing in a final volume 10 μL 10 mM TRIS-HCl pH 7.5, 3 mM MgCl2, 50 mM NaCl, 0.05% CHAPS, 1 mM DTT and 1 μM ATP at room temperature.
All fits were performed with the program XLfit4 (ID Business Solutions, Guildford, UK).

PI 3-kinase delta [7] = target: T2, PI 3-kinase delta; experiment: TR-FRET Adapta assay, assay F; settings: read-out: Assay F PI3Kδ IC50
PI 4-kinase beta = PI 4-kinase beta (Homo sapiens, UniProt Q9UBF8); experiment: Kinase Glo Luminescent Kinase Assay (Kglo), assay D; assay type: biochemical; settings: read-out: Assay D PI4Kβ IC50
Sequence of PI 4-kinase beta (Q9UBF8 whole entry): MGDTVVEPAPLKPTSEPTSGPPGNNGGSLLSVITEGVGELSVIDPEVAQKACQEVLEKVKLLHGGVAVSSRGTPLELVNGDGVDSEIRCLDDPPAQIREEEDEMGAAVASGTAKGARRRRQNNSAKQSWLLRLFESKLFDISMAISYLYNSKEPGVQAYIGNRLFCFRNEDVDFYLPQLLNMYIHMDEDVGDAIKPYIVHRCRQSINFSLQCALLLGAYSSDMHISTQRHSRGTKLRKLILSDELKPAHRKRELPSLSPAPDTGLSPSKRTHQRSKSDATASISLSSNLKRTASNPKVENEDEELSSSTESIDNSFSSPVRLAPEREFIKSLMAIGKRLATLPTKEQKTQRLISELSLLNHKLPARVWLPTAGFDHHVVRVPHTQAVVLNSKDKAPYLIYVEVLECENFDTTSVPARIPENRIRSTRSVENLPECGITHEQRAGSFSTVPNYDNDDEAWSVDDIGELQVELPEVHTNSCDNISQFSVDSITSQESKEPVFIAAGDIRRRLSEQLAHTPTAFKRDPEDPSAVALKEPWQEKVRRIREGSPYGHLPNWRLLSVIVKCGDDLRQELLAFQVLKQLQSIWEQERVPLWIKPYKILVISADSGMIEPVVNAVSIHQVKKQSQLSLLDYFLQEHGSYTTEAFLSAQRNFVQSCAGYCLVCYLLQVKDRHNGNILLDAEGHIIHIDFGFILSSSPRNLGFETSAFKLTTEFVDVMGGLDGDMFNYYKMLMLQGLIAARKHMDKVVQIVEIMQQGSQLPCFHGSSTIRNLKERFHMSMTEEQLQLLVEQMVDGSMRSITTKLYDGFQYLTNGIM

[8] = Microsomal clearance assay (M); settings: intrinsic clearance in rat liver microsomes
Procedure: The experiments were performed in 96-well glass plates at 37° C. on an automated Tecan EVO platform. Test compounds at a concentration of 10 mM in pure DMSO were diluted 1:1000 in water to 10 μM. […] Reactions were initiated by the addition of 150 μL of a cofactor solution containing 2 mM NADPH.

PI 3-kinase alpha [9] = target: T4, PI 3-kinase alpha; experiment: Kinase Glo Luminescent Kinase Assay (Kglo), assay A; assay type: biochemical; settings: read-out: Assay A PI3Kα IC50
Target sequence in this assay (P42336 whole entry): as the sequence (P42336 whole entry) above

PI 3-kinase gamma [10] = target: T1, PI 3-kinase gamma; experiment: TR-FRET Adapta assay, assay E; assay type: biochemical; settings: read-out: Assay E PI3Kγ IC50
PI 3-kinase gamma [11] = target: T1, PI 3-kinase gamma; experiment: Cellular U937 AKT assay K1 (MSD); assay type: cell-based; settings: U937 cells, K1 format; read-out: Assay K1 PI3Kγ IC50
mTOR = mTOR (Homo sapiens, UniProt P42345); experiment: Lanthascreen kinase binding assay, assay G; settings: read-out: Assay G mTOR IC50
Procedure: Lanthascreen™ Kinase Binding Assay for mTOR (G)
Binding of an inhibitor to the kinase competes for binding with the tracer, resulting in a loss of FRET.
50 nL of compound dilutions were dispensed onto white 384-well small volume polystyrene plate.

T1 sequence (P48736 whole entry): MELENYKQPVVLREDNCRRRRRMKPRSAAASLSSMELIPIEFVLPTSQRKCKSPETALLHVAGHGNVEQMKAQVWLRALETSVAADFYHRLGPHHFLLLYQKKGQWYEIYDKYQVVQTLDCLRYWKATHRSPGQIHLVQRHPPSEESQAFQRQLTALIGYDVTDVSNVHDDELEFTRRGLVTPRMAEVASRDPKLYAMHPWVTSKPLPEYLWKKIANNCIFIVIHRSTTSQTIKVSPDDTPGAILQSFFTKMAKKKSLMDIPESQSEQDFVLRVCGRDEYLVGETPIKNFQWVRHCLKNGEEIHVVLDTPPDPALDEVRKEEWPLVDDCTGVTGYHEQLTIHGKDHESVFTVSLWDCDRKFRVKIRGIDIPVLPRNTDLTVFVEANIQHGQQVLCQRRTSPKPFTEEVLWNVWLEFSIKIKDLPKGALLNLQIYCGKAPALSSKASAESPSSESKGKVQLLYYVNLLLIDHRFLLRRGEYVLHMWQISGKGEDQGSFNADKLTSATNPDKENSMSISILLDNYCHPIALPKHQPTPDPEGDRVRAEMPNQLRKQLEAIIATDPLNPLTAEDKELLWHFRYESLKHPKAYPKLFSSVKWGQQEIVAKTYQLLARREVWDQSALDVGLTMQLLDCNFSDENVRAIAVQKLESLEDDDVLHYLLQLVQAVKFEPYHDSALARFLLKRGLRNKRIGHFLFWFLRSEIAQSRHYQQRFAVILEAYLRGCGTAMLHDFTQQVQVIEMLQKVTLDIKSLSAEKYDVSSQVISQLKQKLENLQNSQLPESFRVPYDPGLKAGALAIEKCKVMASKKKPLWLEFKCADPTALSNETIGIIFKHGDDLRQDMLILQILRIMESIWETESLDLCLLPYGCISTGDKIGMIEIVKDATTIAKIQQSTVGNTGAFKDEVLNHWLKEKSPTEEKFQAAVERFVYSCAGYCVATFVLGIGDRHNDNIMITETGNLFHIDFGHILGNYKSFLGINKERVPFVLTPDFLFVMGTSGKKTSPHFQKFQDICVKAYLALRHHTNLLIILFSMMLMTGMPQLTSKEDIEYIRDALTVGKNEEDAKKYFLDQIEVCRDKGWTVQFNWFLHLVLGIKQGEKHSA

Row | IC50 (PI 3-kinase gamma [1]) [nM] | IC50 [2] [nM] | IC50 (PI 3-kinase delta [3]) [nM] | IC50 (PI 3-kinase beta [4]) [µM] | IC50 (PI 3-kinase alpha [5]) [µM] | IC50 (PI 3-kinase beta [6]) [nM] | IC50 (Vps34) [µM] | IC50 (PI 3-kinase delta [7]) [nM] | IC50 (PI 4-kinase beta) [nM] | Assay M RLM CI(int) [8] [µL/min/mg] | IC50 (PI 3-kinase alpha [9]) [nM] | IC50 (PI 3-kinase gamma [10]) [nM] | IC50 (PI 3-kinase gamma [11]) [nM] | IC50 (mTOR) [µM] | Structure (SMILES)
1 | 201 | 2990 | > 10000 | 9.91 | > 10 | 500 | > 10 | 100 | 6800 | 22 | 150 | 14 | 209 |  | Cc1ccc(S(=O)(=O)NCC2(CO)COC2)cc1-c1cnc(N)c(-c2cn(C)nc2C)n1 [Example 128, 3-(5-Amino-6-(1,3-dimethyl-1H-pyrazol-4-yl)pyrazin-2-yl)-N-((3-(hydroxymethyl)oxetan-3-yl)methyl)-4-methylbenzenesulfonamide]
2 | 24 | 143 | 1080 | 3.57 | 1.08 | 440 | 0.47 | 320 | 1480 | 39 | 50 | 8 | 55 | 3.45 | Cc1ncc(-c2nc(-c3cc(S(=O)(=O)NCCCO)c(F)cc3C)cnc2N)s1 [Example 113, 5-(5-Amino-6-(2-methylthiazol-5-yl)pyrazin-2-yl)-2-fluoro-N-(3-hydroxypropyl)-4-methylbenzenesulfonamide]
3 | 172 | 586 | 310 | 1.14 | 0.79 | 3300 | > 10 | 500 | 3150 | 62 | 860 | 19 | 95 | 6.3 | CCONS(=O)(=O)c1ccc(C)c(-c2cnc(N)c(-n3cncn3)n2)c1 [Example 112, 3-(5-Amino-6-(1H-1,2,4-triazol-1-yl)pyrazin-2-yl)-N-ethoxy-4-methylbenzenesulfonamide]
4 | 100 | 256 | 4690 | > 10 | 6.67 | 5710 | > 9.1 | 420 | 7080 | 47 | 760 | 44 | 164 | 8.02 | Cc1ccc(S(=O)(=O)N[C@H]2CC[C@H](O)CC2)cc1-c1cnc(N)c(-c2cccnc2)n1 [Example 22, Trans-3-(5-Amino-6-pyridin-3-yl-pyrazin-2-yl)-N-(4-hydroxy-cyclohexyl)-4-methyl benzenesulfonamide]
5 | 945 | 727 | > 10000 | > 3 | > 10 | > 10000 | > 10 |  | > 10000 | 85 | 900 | 36 | 577 | > 10 | Cc1ccc(S(=O)(=O)NCC(C)(C)O)cc1-c1cnc(N)c(-n2cnc(CN(C)C)n2)n1 [Example 117, 3-(5-Amino-6-(3-((dimethylamino)methyl)-1H-1,2,4-triazol-1-yl)pyrazin-2-yl)-N-(2-hydroxy-2-methylpropyl)-4-methylbenzenesulfonamide hydrochloride salt]
6 | 421 | 1670 | > 10000 | > 10 | > 3 | 1800 | > 10 | 100 | > 10000 | <3.4 | 590 | 21 | 751 |  | Cc1ccc(S(=O)(=O)NCC2CNCCO2)cc1-c1cnc(N)c(-c2cn(C)nc2C)n1 (stereo not drawn) [Example 128.8, 3-(5-amino-6-(1,3-dimethyl-1H-pyrazol-4-yl)pyrazin-2-yl)-4-methyl-N-(morpholin-2-ylmethyl)benzenesulfonamide]
7 | 59 | 413 | > 10000 | > 10 | 7.04 | 240 | 2.3 | 150 | 1600 | 37 | 60 | 5 | 22 |  | Cc1ncc(-c2nc(-c3cc(S(=O)(=O)NCC4(CO)COC4)ccc3C)cnc2N)s1 [Example 44, 3-(5-Amino-6-(2-methylthiazol-5-yl)pyrazin-2-yl)-N-((3-(hydroxymethyl)oxetan-3-yl)methyl)-4-methylbenzenesulfonamide]
8 | 163 | 5560 | 410 | 3.01 | 5.78 | 260 |  | 330 | 640 | 112 | 310 | 38 | 58 | > 10 | Cc1ccc(S(=O)(=O)NCCC(C)(C)O)cc1-c1cnc(N)c(-c2cscn2)n1 [Example 108, 3-(5-Amino-6-(thiazol-4-yl)pyrazin-2-yl)-N-(3-hydroxy-3-methylbutyl)-4-methylbenzenesulfonamide]
9 | 622 | 742 |  |  |  | 380 | > 10 | 780 | 910 | 12 | 210 | 47 | 1980 | 1.5 | Cc1ccc(S(=O)(=O)NCCN)cc1-c1cnc(N)c(-n2cncn2)n1 [Example 33, N-(2-Amino-ethyl)-3-(5-amino-6-[1,2,4]triazol-1-yl-pyrazin-2-yl)-4-methyl-benzenesulfonamide trifluoroacetic acid salt]
10 | 117 | 826 | > 10000 | > 10 | > 10 | 1900 | > 10 | 690 | > 10000 | 20 | 220 | 79 | 249 |  | Cc1ccc(S(=O)(=O)NC[C@H]2COCCN2)cc1-c1cnc(N)c(-c2cn(C)nc2C)n1 [Example 128.7, (S)-3-(5-Amino-6-(1,3-dimethyl-1H-pyrazol-4-yl)pyrazin-2-yl)-4-methyl-N-(morpholin-3-ylmethyl)benzenesulfonamide]

Row | Structure (SMILES) | IC50 (PI 3-kinase gamma [1]) [nM] | IC50 [2] [nM] | IC50 (PI 3-kinase delta [3]) [nM] | IC50 (PI 3-kinase beta [4]) [µM] | IC50 (PI 3-kinase alpha [5]) [µM] | IC50 (PI 3-kinase beta [6]) [nM] | IC50 (Vps34) [µM] | IC50 (PI 3-kinase delta [7]) [nM] | IC50 (PI 4-kinase beta) [nM] | Assay M RLM CI(int) [8] [µL/min/mg] | IC50 (PI 3-kinase alpha [9]) [nM] | IC50 (PI 3-kinase gamma [10]) [nM] | IC50 (PI 3-kinase gamma [11]) [nM] | IC50 (mTOR) [µM]
11 | Cc1ccc(S(=O)(=O)NOC(C)(C)C)cc1-c1cnc(N)c(-n2cncn2)n1 [Example 112.1, 3-(5-Amino-6-(1H-1,2,4-triazol-1-yl)pyrazin-2-yl)-N-(tert-butoxy)-4-methylbenzenesulfonamide] | 63 | 1330 | 380 | 1.47 | 0.8 | 1700 | > 10 | 210 | 1800 |  | 290 | 33 | 91 | 6
